# Test results published in paper PMC5008840, “α-Mangostin Extraction from the Native Mangosteen (Garcinia mangostana L.) and the Binding Mechanisms of α-Mangostin to HSA or TRF” (PLoS ONE, 2016).
# Experiments:
# human transferrin (TRF) = molecular target: T1, human transferrin (TRF) (Homo sapiens, UniProt P02787); assay: intrinsic fluorescence quenching titration; format: binding; details: 298 K; 0.1 M Tris-HCl pH 7.3, 0.1 M NaCl; 10 μM protein; excitation 282 nm; n = 1.09; double-log
# T1 construct: gene TF; mature glycoprotein, 679 residues, 19 disulfide bonds, about 77 kD
# From the text: intrinsic fluorescence quenching titration on human transferrin (TRF)
# [1] = molecular target: T2, human serum albumin (HSA) (Homo sapiens, UniProt P02768); assay: intrinsic fluorescence quenching titration; format: binding; details: 298 K; 0.1 M Tris-HCl pH 7.3, 0.1 M NaCl; 10 μM protein; excitation 282 nm; n = 1.15; double-log
# T2 construct: gene ALB; mature protein, 585 residues, 17 disulfide bonds, about 67 kD
# From the text: intrinsic fluorescence quenching titration on human serum albumin (HSA)
# T2 sequence (P02768 25-609): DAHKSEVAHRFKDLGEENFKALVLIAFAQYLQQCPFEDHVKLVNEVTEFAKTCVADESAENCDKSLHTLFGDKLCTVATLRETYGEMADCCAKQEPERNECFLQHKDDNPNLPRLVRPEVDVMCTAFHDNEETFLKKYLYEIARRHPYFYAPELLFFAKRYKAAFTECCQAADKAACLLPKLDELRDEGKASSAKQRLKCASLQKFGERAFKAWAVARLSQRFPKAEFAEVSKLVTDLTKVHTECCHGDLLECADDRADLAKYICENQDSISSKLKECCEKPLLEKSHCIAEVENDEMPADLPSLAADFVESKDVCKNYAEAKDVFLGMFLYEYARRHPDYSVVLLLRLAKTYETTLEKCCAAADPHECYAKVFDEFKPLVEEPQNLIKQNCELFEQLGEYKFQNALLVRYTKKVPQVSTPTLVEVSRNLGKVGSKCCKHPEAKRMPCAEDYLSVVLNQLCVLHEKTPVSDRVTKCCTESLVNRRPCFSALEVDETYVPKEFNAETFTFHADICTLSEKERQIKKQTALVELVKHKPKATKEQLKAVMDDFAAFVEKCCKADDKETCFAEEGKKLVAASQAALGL
# T1 sequence (P02787 20-698): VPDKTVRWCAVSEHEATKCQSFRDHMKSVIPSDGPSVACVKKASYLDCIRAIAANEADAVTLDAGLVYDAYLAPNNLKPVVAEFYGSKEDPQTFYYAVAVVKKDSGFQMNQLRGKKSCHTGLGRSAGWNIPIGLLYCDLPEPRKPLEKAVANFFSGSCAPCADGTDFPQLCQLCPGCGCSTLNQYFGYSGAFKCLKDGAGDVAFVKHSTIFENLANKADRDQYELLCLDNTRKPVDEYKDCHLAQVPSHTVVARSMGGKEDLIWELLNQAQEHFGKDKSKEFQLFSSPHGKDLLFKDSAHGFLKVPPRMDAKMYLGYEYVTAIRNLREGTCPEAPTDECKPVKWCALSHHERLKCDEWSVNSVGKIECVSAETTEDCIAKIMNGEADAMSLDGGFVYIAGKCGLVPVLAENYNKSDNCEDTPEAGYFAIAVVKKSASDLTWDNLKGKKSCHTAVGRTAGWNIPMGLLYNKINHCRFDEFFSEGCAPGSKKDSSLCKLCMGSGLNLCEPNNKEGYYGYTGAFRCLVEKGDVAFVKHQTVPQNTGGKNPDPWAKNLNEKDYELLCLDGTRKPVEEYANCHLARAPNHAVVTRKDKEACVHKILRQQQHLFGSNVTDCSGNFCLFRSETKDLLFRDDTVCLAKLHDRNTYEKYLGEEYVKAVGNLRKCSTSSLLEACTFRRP
structure (smiles),measurement,setting,value
"COc1c(O)cc2oc3cc(O)c(CC=C(C)C)c(O)c3c(=O)c2c1CC=C(C)C [α-mangostin, 1,3,6-trihydroxy-7-methoxy-2,8-bis(3-methyl-2-butenyl)-9H-xanthen-9-one]",K,human transferrin (TRF),146520 L/mol
same,K,[1],648320 L/mol
